In the test the target is JAK2 (JH1 domain-catalytic, Y1007F, Y1008F) kinase (Homo sapiens (Human), UniProt O60674, Y1007F/Y1008F). Put plainly: JAK2 JH1 Domain Binding Assay. The settings on record: qPCR readout. A digest of the protocol:
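JH1 catalytic domain (Y1007F/Y1008F) expressed as NFkB DNA-binding-domain fusion in HEK293 cells, DNA-tagged. Competition with immobilized biotinylated ligand on streptavidin beads, 1 h at RT in PBS/Tween/BSA/DTT; bound kinase eluted with free ligand and quantified by qPCR.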

Chain of JAK2 (JH1 domain-catalytic, Y1007F, Y1008F) kinase (O60674 849-1124 Y1007F/Y1008F): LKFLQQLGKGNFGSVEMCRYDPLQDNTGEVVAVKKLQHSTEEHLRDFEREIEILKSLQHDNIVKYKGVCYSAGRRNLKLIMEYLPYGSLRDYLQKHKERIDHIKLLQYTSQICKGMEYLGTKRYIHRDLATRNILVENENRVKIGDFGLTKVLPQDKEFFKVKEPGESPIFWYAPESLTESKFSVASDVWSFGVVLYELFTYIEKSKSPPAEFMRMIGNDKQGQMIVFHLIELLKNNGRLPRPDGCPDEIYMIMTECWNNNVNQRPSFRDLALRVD

`Cc1n[nH]c2ncc(N3CCC(N(C)C(=O)Nc4cc(C(F)(F)F)cn(C)c4=O)C(F)(F)C3)cc12` (single isomer, unassigned) [Example I-36-b, (S)- or (R)-1-(3,3-difluoro-1-(3-methyl-1H-pyrazolo[3,4-b]pyridin-5-yl)piperidin-4-yl)-1-methyl-3-(1-methyl-2-oxo-5-(trifluoromethyl)-1,2-dihydropyridin-3-yl)urea] displayed a Kd of under 10 nM.

The compound `CN1CCC(c2n[nH]c3ncc(N4CC[C@@H](N(C)C(=O)Nc5cc(C(F)(F)F)cn(C)c5=O)C(F)(F)C4)cc23)CC1` (single isomer, unassigned) [Example I-122-b] came in with a Kd of under 10 nM. The figure for `CC(=O)Nc1cnc(N2CCC(N(C)C(=O)Nc3cc(C(F)(F)F)cn(C)c3=O)CC2)cn1` [Example I-14, N-(5-(4-(1-methyl-3-(1-methyl-2-oxo-5-(trifluoromethyl)-1,2-dihydropyridin-3-yl)ureido)piperidin-1-yl)pyrazin-2-yl)acetamide] is under 10 nM.

In turn, `CN(C(=O)Nc1cc(C(F)(F)F)cn(C)c1=O)[C@@H]1CCN(c2cnccn2)CC1(F)F` (single isomer, unassigned) [Example I-22-a] returned a Kd of 10 to 50 nM. The value for `COc1n[nH]c2ncc(N3CC[C@H]4[C@H](C3)OCCN4C(=O)Nc3cc(C(F)(F)F)cn(C)c3=O)cc12` (single isomer, unassigned) [Example I-169-b] was under 10 nM; that for `CN(C(=O)Nc1cc(C(F)(F)F)cn(C)c1=O)[C@H]1CCN(c2cnc3[nH]ncc3c2)C[C@H]1F` (stereo in doubt) [Example I-62-a, 1-((3R,4S)-3-fluoro-1-(1H-pyrazolo[3,4-b]pyridin-5-yl)piperidin-4-yl)-1-methyl-3-(1-methyl-2-oxo-5-(trifluoromethyl)-1,2-dihydropyridin-3-yl)urea] was under 10 nM; that for `CO[C@@H]1CN(c2cnc3[nH]c(C)cc3n2)CC[C@H]1N(C)C(=O)Nc1cc(C(F)(F)F)cn(C)c1=O` [Example I-117-a, 1-((3R,4R)-3-methoxy-1-(6-methyl-5H-pyrrolo[2,3-b]pyrazin-2-yl)piperidin-4-yl)-1-methyl-3-(1-methyl-2-oxo-5-(trifluoromethyl)-1,2-dihydropyridin-3-yl)urea] was 50 to 1000 nM. The value for `Cc1c[nH]c2ncc(N3CCC(N(C)C(=O)Nc4cc(C(F)(F)F)cn(C)c4=O)CC3)nc12` [Example I-30, 1-methyl-3-(1-methyl-2-oxo-5-(trifluoromethyl)-1,2-dihydropyridin-3-yl)-1-(1-(7-methyl-5H-pyrrolo[2,3-b]pyrazin-2-yl)piperidin-4-yl)urea] was under 10 nM; that for “1-(1-(3-((1R,2R)-2-hydroxycyclobutoxy)-1H-pyrazolo[3,4-b]pyridin-5-yl)piperidin-4-yl)-1-methyl-3-(1-methyl-2-oxo-5-(trifluoromethyl)-1,2-dihydropyridin-3-yl)urea and 1-(1-(3-((1S,2S)-2-hydroxycyclobutoxy)-1H-pyrazolo[3,4-b]pyridin-5-yl)piperidin-4-yl)-1-methyl-3-(1-methyl-2-oxo-5-(trifluoromethyl)-1,2-dihydropyridin-3-yl)urea [Example I-184-a]” was 50 to 1000 nM. The value for `COCc1cc2nc(N3CC[C@@H](N(C)C(=O)Nc4cc(C(F)(F)F)cn(C)c4=O)C(F)(F)C3)cnc2[nH]1` [Example I-110-a, (R)-1-(3,3-difluoro-1-(6-(methoxymethyl)-5H-pyrrolo[2,3-b]pyrazin-2-yl)piperidin-4-yl)-1-methyl-3-(1-methyl-2-oxo-5-(trifluoromethyl)-1,2-dihydropyridin-3-yl)urea] was under 10 nM; that for `COc1n[nH]c2ncc(N3CCC(N(C)C(=O)Nc4cc(C5CC5)cn([C@@H]5CCCOC5)c4=O)CC3)cc12` [Example I-136-b, (R)-3-(5-cyclopropyl-2-oxo-1-(tetrahydro-2H-pyran-3-yl)-1,2-dihydropyridin-3-yl)-1-(1-(3-methoxy-1H-pyrazolo[3,4-b]pyridin-5-yl)piperidin-4-yl)-1-methylurea] was under 10 nM. In turn, `CC(=O)Nc1cnc(N2CCC(CC(=O)Nc3cc(CN4CCN(C)CC4)cc(C(F)(F)F)c3)CC2)cn1` [Example I-7, 2-(1-(5-acetamidopyrazin-2-yl)piperidin-4-yl)-N-(3-((4-methylpiperazin-1-yl)methyl)-5-(trifluoromethyl)phenyl)acetamide] registered a Kd of 1000 to 5000 nM. The figure for `CN(C(=O)Nc1cc(C(F)(F)F)cn(C)c1=O)C1CCN(c2cnc3sncc3c2)CC1` [Example I-66, 1-(1-(isothiazolo[5,4-b]pyridin-5-yl)piperidin-4-yl)-1-methyl-3-(1-methyl-2-oxo-5-(trifluoromethyl)-1,2-dihydropyridin-3-yl)urea] is under 10 nM. `CN(C)C(=O)Nc1cnc(N2CCC(N(C)C(=O)Nc3cc(C(F)(F)F)cn(C)c3=O)CC2)cn1` [Example I-48, 1,1-dimethyl-3-(5-(4-(1-methyl-3-(1-methyl-2-oxo-5-(trifluoromethyl)-1,2-dihydropyridin-3-yl)ureido)piperidin-1-yl)pyrazin-2-yl)urea]: the Kd was 10 to 50 nM. The value for `CN(C(=O)Nc1cc(C(F)(F)F)cn(C)c1=O)[C@@H]1CCN(c2cnc3[nH]ncc3n2)C[C@@H]1F` [Example I-83-b, 1-((3S,4R)-3-fluoro-1-(1H-pyrazolo[3,4-b]pyrazin-5-yl)piperidin-4-yl)-1-methyl-3-(1-methyl-2-oxo-5-(trifluoromethyl)-1,2-dihydropyridin-3-yl)urea] was under 10 nM; that for `C[C@H]1CN(c2cnc3[nH]ncc3c2)CC[C@H]1N(C)C(=O)Nc1cc(C(F)(F)F)cn(C)c1=O` [Example I-70-b, 1-methyl-1-((3S,4R)-3-methyl-1-(1H-pyrazolo[3,4-b]pyridin-5-yl)piperidin-4-yl)-3-(1-methyl-2-oxo-5-(trifluoromethyl)-1,2-dihydropyridin-3-yl)urea] was under 10 nM; that for `CC(=O)Nc1cnc(N2CCC(CC(=O)Nc3cc(C)cc(C(F)(F)F)c3)CC2)cn1` [Example I-2, 2-(1-(5-acetamidopyrazin-2-yl)piperidin-4-yl)-N-(3-methyl-5-(trifluoromethyl)phenyl)acetamide] was 50 to 1000 nM.

On to `COCc1cc2nc(N3CC[C@H](N(C)C(=O)Nc4cc(C(F)(F)F)cn(C)c4=O)C(F)(F)C3)cnc2[nH]1` [Example I-110-b, (S)-1-(3,3-difluoro-1-(6-(methoxymethyl)-5H-pyrrolo[2,3-b]pyrazin-2-yl)piperidin-4-yl)-1-methyl-3-(1-methyl-2-oxo-5-(trifluoromethyl)-1,2-dihydropyridin-3-yl)urea], for which the Kd was under 10 nM. `COc1n[nH]c2ncc(N3CCC(N(C)C(=O)Nc4cncc(C(F)(F)F)c4)CC3)cc12` [Example I-139, 1-(1-(3-methoxy-1H-pyrazolo[3,4-b]pyridin-5-yl)piperidin-4-yl)-1-methyl-3-(5-(trifluoromethyl)pyridin-3-yl)urea] came in with a Kd of under 10 nM.

Compound `COc1c[nH]c2ncc([C@H]3CC[C@@H](N(C)C(=O)Nc4cc(C(F)(F)F)cn(C)c4=O)CC3)nc12` [Example I-171, cis-1-(4-(7-methoxy-5H-pyrrolo[2,3-b]pyrazin-2-yl)cyclohexyl)-1-methyl-3-(1-methyl-2-oxo-5-(trifluoromethyl)-1,2-dihydropyridin-3-yl)urea] had a Kd of 50 to 1000 nM. The compound `CN(C(=O)Nc1cc(N2CCC(O)CC2)cc(C(F)(F)F)c1)C1CCN(c2cnccn2)CC1` [Example I-9, 3-(3-(4-hydroxypiperidin-1-yl)-5-(trifluoromethyl)phenyl)-1-methyl-1-(1-(pyrazin-2-yl)piperidin-4-yl)urea] had a Kd of 1000 to 5000 nM. The value for `COCc1cc2nc(N3CC[C@@H]4[C@@H](C3)OCCN4C(=O)Nc3cc(C(F)(F)F)cn(C)c3=O)cnc2[nH]1` [Example I-164-b, (4aR,8aR)-6-(6-(methoxymethyl)-5H-pyrrolo[2,3-b]pyrazin-2-yl)-N-(1-methyl-2-oxo-5-(trifluoromethyl)-1,2-dihydropyridin-3-yl)octahydro-1H-pyrido[3,4-b][1,4]oxazine-1-carboxamide] was 10 to 50 nM; that for “(S)-1-methyl-3-(1-methyl-2-oxo-5-(trifluoromethyl)-1,2-dihydropyridin-3-yl)-1-(3-(3-((tetrahydrofuran-3-yl)oxy)-1H-pyrazolo[3,4-b]pyridin-5-yl)bicyclo[1.1.1]pentan-1-yl)urea and (R)-1-methyl-3-(1-methyl-2-oxo-5-(trifluoromethyl)-1,2-dihydropyridin-3-yl)-1-(3-(3-((tetrahydrofuran-3-yl)oxy)-1H-pyrazolo[3,4-b]pyridin-5-yl)bicyclo[1.1.1]pentan-1-yl)urea [Example I-166-b]” was at least 5000 nM.

Take `C[C@@H]1CN(C(=O)Nc2cc(C(F)(F)F)cn(C)c2=O)C2(CCN(c3cnc4[nH]cc(C#N)c4n3)CC2)C1` (single isomer, unassigned) [Example I-60-a]: the dissociation constant Kd lay within 50 to 1000 nM. The value for `Cn1cc(C(F)(F)F)cc(NC(=O)N2CCO[C@H]3CN(c4cnc(NC(=O)C5CC5)cn4)CC[C@@H]32)c1=O` [Example I-148-a, ((4aS,8aS)-6-(5-(cyclopropanecarboxamido)pyrazin-2-yl)-N-(1-methyl-2-oxo-5-(trifluoromethyl)-1,2-dihydropyridin-3-yl)octahydro-1H-pyrido[3,4-b][1,4]oxazine-1-carboxamide and (4aR,8aR)-6-(5-(cyclopropanecarboxamido)pyrazin-2-yl)-N-(1-methyl-2-oxo-5-(trifluoromethyl)-1,2-dihydropyridin-3-yl)octahydro-1H-pyrido[3,4-b][1,4]oxazine-1-carboxamide] was under 10 nM; that for `COCc1cc2nc(N3CC[C@@H](N(C)C(=O)Nc4cc(C(F)(F)F)cn(C)c4=O)[C@H](OC)C3)cnc2[nH]1` [Example I-113-b, 1-((3R,4R)-3-methoxy-1-(6-(methoxymethyl)-5H-pyrrolo[2,3-b]pyrazin-2-yl)piperidin-4-yl)-1-methyl-3-(1-methyl-2-oxo-5-(trifluoromethyl)-1,2-dihydropyridin-3-yl)urea] was 1000 to 5000 nM.
